In publication PMC12041881, “Tailored phenyl ureas eradicate drug-resistant Mycobacterium tuberculosis by targeting mycolic acid cell wall assembly” (Chemical Science, 2025):
≈ marks a conversion by molar mass, not a printed value. Entries after “also recorded” stand apart in the source; their conditions may differ. Read-outs that look alike come from different tables or passages of the source.

Assays:
M. tuberculosis H37Ra = assay: microbe, parasite or virus in culture; format: cell-based, Mycobacterium tuberculosis; conditions: for MIC: Mycobacterium tuberculosis, H37RA, read-out: MIC MTB H37Ra
WT M. tuberculosis H37Rv = assay: microbe, parasite or virus in culture; format: cell-based
[1] = test system: three bacterial strains from the mouse microbiota (Oligo-Mouse-Microbiota); assay: MIC measurements in strains from the Oligo-Mouse-Microbiota; format: cell-based
MmpL3 = MmpL3 (Mycobacterium tuberculosis, UniProt P9WJV5); format: cell-based, M. tuberculosis
Chain of MmpL3 (P9WJV5 whole entry): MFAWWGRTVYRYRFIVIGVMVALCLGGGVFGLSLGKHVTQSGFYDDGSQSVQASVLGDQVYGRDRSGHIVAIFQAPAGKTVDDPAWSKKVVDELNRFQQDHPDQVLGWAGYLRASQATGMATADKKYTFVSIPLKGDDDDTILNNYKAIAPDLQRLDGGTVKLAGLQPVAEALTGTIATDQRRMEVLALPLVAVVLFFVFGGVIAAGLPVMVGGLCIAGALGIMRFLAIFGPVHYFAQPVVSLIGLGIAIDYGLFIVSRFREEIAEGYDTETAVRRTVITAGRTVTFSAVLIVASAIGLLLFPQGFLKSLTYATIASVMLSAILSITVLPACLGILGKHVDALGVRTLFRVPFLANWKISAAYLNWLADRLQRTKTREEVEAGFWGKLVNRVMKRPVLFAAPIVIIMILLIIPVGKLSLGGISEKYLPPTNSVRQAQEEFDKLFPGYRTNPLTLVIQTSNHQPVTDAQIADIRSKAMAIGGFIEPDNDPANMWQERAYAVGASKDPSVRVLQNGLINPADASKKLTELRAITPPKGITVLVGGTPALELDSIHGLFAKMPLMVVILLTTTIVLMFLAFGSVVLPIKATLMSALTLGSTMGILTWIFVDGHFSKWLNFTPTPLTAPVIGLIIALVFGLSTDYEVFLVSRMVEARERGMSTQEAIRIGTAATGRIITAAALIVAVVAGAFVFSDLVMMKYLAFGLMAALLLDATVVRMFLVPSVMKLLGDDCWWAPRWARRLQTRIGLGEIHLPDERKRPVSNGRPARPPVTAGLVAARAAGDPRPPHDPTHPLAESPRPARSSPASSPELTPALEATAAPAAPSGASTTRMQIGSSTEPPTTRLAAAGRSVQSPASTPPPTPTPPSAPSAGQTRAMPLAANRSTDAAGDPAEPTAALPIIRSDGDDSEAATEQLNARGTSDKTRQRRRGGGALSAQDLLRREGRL

physchem = conditions: aqueous buffer, kinetic from dmso stock
[2] = test system: probe-bound proteins in M. tuberculosis H37Ra cells; format: binding; conditions: for competition of 227-p1 labelling of EphF and EphD: 5 μM 227-p1, competitor in excess (25 μM 227)
Mtb H37Ra proteome = format: cell-based
[3] = test system: M. tuberculosis H37Ra cells; format: cell-based
in vivo [4] = assay: in vivo; design: species or system CD-1 female mice; conditions: female, CD-1, mouse; for bioavailability: F
Procedure: (DMA), and 95% (20% Solutol HS15 in water).
Blood timepoints were taken
liquid chromatography coupled to tandem mass spectrometry. Pharmacokinetic parameters were
LC-MS/MS analytical methods for PK studies
to create standard curves solutions.
10µLs of control, standard, or
internal standards Labetalol (Sigma Aldrich). Extracts were vortexed for 5 minutes and centrifuged at
with 75 µLs of Milli-Q deionized water.
Multiple-reaction monitoring of […]
Extracts were vortexed for 5 minutes
75 µL of extract was combined
HPLC-MS was performed as previously specified.

in vitro = conditions: mouse, microsomes
in vivo [5] = conditions: female, CD-1, mouse
HeLa cells = assay: cells; format: cell-based; conditions: Homo sapiens
epoxide hydrolase EphF = format: biochemical, M. tuberculosis
[6] = i.v. 5 mg kg^−1
MTB [7] = assay: Checkerboard assay with ethionamide; format: cell-based, M. tuberculosis; conditions: combination with ethionamide
M. smegmatis DSM43756 = assay: MIC / in-house urea library screen against M. smegmatis; format: cell-based; conditions: read-out: MIC M. smegmatis (Msm)
[8] = test system: MmpL3 underexpressing (−ATc) Mtb H37Rv; format: cell-based, M. tuberculosis
Mtb [9] = conditions: strain not stated; cited from earlier work
LepB = assay: FRET assay with membrane-bound LepB; conditions: M. smegmatis membranes
[10] = Mycobacterium tuberculosis, H37RV
[11] = HeLa, read-out: MTT assay IC50 95% confidence interval (CI)
[12] = Mycolicibacterium smegmatis, DSM43756

## O=C(Nc1ccc(Cl)c(OC(F)(F)F)c1)NC1CCCCC1 [Compound 1]
M. tuberculosis H37Ra
  MIC: 3.13 µM (≈ 1.05 µg/mL)

## O=C(Nc1cc(C(F)(F)F)c(Cl)cn1)NC1CCCCC1 [Compound 2]
M. tuberculosis H37Ra
  MIC: > 50 µM

## CC1(NC(=O)Nc2ccc(Cl)c(C(F)(F)F)c2)CCCC1 [Compound 3]
M. tuberculosis H37Ra
  MIC MTB H37Ra: 0.39 µM (≈ 0.125 µg/mL)
  MIC: 0.4 µM (≈ 0.128 µg/mL)

## CC1(NC(=O)Nc2ccc(F)c(C(F)(F)F)c2)CCCC1 [Compound 4]
M. tuberculosis H37Ra
  MIC: 3.13 µM (≈ 0.952 µg/mL)

## CC1(NC(=O)Nc2ccccc2)CCCC1 [Compound 5]
M. tuberculosis H37Ra
  MIC: 25 µM (≈ 5.46 µg/mL)

## CC1(NC(=O)Nc2ccc(F)c(F)c2F)CCCC1 [Compound 6]
M. tuberculosis H37Ra
  MIC: > 50 µM

## CC1(NC(=O)Nc2ccc(F)c(F)c2)CCCC1 [Compound 7]
M. tuberculosis H37Ra
  MIC: 25 µM (≈ 6.36 µg/mL)

## CC1(NC(=O)Nc2cc(F)c(F)c(F)c2)CCCC1 [Compound 8]
M. tuberculosis H37Ra
  MIC: 25 µM (≈ 6.81 µg/mL)

## O=C(Nc1ccc(Cl)c(C(F)(F)F)c1)NC1CCCC1 [Compound 9]
M. tuberculosis H37Ra
  MIC MTB H37Ra: 3.13 µM (≈ 0.96 µg/mL)
  MIC: 3.2 µM (≈ 0.981 µg/mL)

## O=C(Nc1ccc(Cl)c(C(F)(F)F)c1)NC1CCC1 [Compound 10]
M. tuberculosis H37Ra
  MIC: 25 µM (≈ 7.32 µg/mL)

## O=C(Nc1ccc(Cl)c(C(F)(F)F)c1)NC1CC1 [Compound 11]
M. tuberculosis H37Ra
  MIC: > 50 µM

## CC1(NC(=O)Nc2ccc(Cl)c(C(F)(F)F)c2)CCCCC1 [Compound 12]
WT M. tuberculosis H37Rv; [10]
  IC50: 0.11 µM
  MIC90: 0.2 µM (≈ 0.067 µg/mL)
M. tuberculosis H37Ra
  MIC MTB H37Ra: 0.10 µM (≈ 0.0335 µg/mL)
  MIC: 0.1 µM (≈ 0.0335 µg/mL)
[1]
  effect on bacteria from the Oligo-Mouse-Microbiota: not affected
MmpL3
  TDM/TMM ratio compared with 227: even lower TDM/TMM ratios
physchem
  solubility kinetic at 5 min: 12 µM (≈ 4.02 µg/mL)
[2]
  competition of 227-p1 labelling of EphF and EphD: weaker competition

## CC1CCCCC1NC(=O)Nc1ccc(Cl)c(C(F)(F)F)c1 (centres unmarked) [Compound 13]
M. tuberculosis H37Ra
  MIC: 0.39 µM (≈ 0.131 µg/mL)

## CC1CCCC(NC(=O)Nc2ccc(Cl)c(C(F)(F)F)c2)C1 (centres unmarked) [Compound 14]
M. tuberculosis H37Ra
  MIC: 0.39 µM (≈ 0.131 µg/mL)

## CC1CCC(NC(=O)Nc2ccc(Cl)c(C(F)(F)F)c2)CC1 (centres unmarked) [Compound 15]
M. tuberculosis H37Ra
  MIC: 0.39 µM (≈ 0.131 µg/mL)

## O=C(Nc1ccc(Cl)c(C(F)(F)F)c1)NC1(CO)CCCCC1 [Compound 16]
M. tuberculosis H37Ra
  MIC: 3.13 µM (≈ 1.1 µg/mL)

## O=C(Nc1ccc(Cl)c(C(F)(F)F)c1)NC12CC3CC(CC(O)(C3)C1)C2 [Compound 18]
M. tuberculosis H37Ra
  MIC: 6.25 µM (≈ 2.43 µg/mL)

## O=C(Nc1ccc(Cl)c(C(F)(F)F)c1)NC12CC(C1)C2 [Compound 19]
M. tuberculosis H37Ra
  MIC: 12.5 µM (≈ 3.81 µg/mL)

## CC1(C)OCC(NC(=O)Nc2ccc(Cl)c(C(F)(F)F)c2)CO1 [Compound 20]
M. tuberculosis H37Ra
  MIC: 3.13 µM (≈ 1.1 µg/mL)

## O=C(Nc1ccc(Cl)c(C(F)(F)F)c1)NC1COC2(CCC2)OC1 [Compound 21]
Mtb H37Ra proteome; full proteome, Mtb H37Ra, 0.5 µM
  MmpL3 abundance, Student's T-test Difference DMJB-04 0.5 µM vs DMSO: 0.4086
WT M. tuberculosis H37Rv; [10]
  IC50: 0.85 µM
  MIC90: 1.8 µM (≈ 0.657 µg/mL)
M. tuberculosis H37Ra
  MIC MTB H37Ra: 0.78 µM (≈ 0.285 µg/mL)
  MIC: 0.8 µM (≈ 0.292 µg/mL)
[3]
  membrane disruption (propidium iodide entry): Neither 227 nor 21 disrupt the membrane
In vivo [4]
  estimated time above MIC: approximately 16 hours
In vivo [4]; po, 200 mg/kg
  F: 24.3%
  AUC: 45.7 µM·h
  bioavailability: 25.3%
In vivo [4]; po, 400 mg/kg
  AUC: 73.3 µM·h
  bioavailability: 20.4%
In vitro
  half-life at 5 µM: 8 min
  microsomal CLint at 5 µM: 88 µL/min/mg
In vivo [5]; iv, 5 mg/kg
  AUC: 4.58 µM·h
  Cmax: 6.27 µM
  half-life: 46.2 min
In vivo [5]; po, 25 mg/kg
  AUC: 9.54 µM·h
  Cmax: 4.04 µM
  bioavailability: 42.5%
HeLa cells; [11]
  IC50: 52 to 97 µM
HeLa cells; HeLa cells, 24 h, read-out: IC50 MTT assay
  IC50: 71 µM
Epoxide hydrolase EphF
  EphF inhibition: inhibits EphF, albeit to a lesser extent
[1]
  effect on bacteria from the Oligo-Mouse-Microbiota: not affected; also recorded: does not kill
MmpL3
  TDM/TMM ratio compared with 227: even lower TDM/TMM ratios
[6]
  CD: 3.38 L/kg
  Clearance: 50.82 mL/(kg*min]
MTB [7]
  fractional inhibitory concentration (FIC) index: 0.83
physchem
  solubility kinetic at 5 min: > 200 µM
[2]
  competition of 227-p1 labelling of EphF and EphD: weaker competition

## O=C(Nc1ccc(Cl)c(C(F)(F)F)c1)NC1CCC2(CC1)OCCO2 [Compound 22]
M. tuberculosis H37Ra
  MIC: 1.56 to 3.13 µM (≈ 0.591 to 1.19 µg/mL)
physchem
  solubility kinetic at 5 min: 112 µM (≈ 42.4 µg/mL)

## CC1(NC(=O)Nc2ccc(Cl)c(C(F)(F)F)c2)COC2(CCC2)OC1 [Compound 23]
M. tuberculosis H37Ra
  MIC MTB H37Ra: 6.25 to 12.5 µM
  MIC: 6.25 µM (≈ 2.37 µg/mL)
physchem
  solubility kinetic at 5 min: 58 µM (≈ 22 µg/mL)

## C#CCCC1(CCOC(=O)c2ccc(NC(=O)Nc3ccccc3)cc2)N=N1 [Compound 150-pi]
M. tuberculosis H37Ra
  MIC MTB H37Ra: inactive

## C#CC1(NC(=O)Nc2ccc(N=[N+]=[N-])cc2)CCCCC1 [Compound 227-p1]
M. tuberculosis H37Ra
  MIC: 25 µM (≈ 7.08 µg/mL)
M. smegmatis DSM43756; [12]
  MIC: 6.25 µM (≈ 1.77 µg/mL)
[2]; 5 μM 227-p1, Mtb
  EphD and EphF enrichment by probe: significantly enriched

## C#CCCC1(CCOC(=O)c2ccc(NC(=O)NC3CCCCC3)cc2)N=N1 [Compound 227-p2]
M. tuberculosis H37Ra
  MIC: > 50 µM
M. smegmatis DSM43756; [12]
  MIC: > 50 µM

## C#CCCC1(CCOC(=O)C2CCC(NC(=O)Nc3ccc(Cl)c(C(F)(F)F)c3)CC2)N=N1 (centres unmarked) [Compound 227-p3]
M. tuberculosis H37Ra
  MIC: > 50 µM
M. smegmatis DSM43756; [12]
  MIC: > 50 µM

## O=C(Nc1ccc(Cl)c(C(F)(F)F)c1)NC1CCCCC1 [Compound 227]
WT M. tuberculosis H37Rv
  MIC: 1.8 µM (≈ 0.577 µg/mL)
WT M. tuberculosis H37Rv; [10]
  IC50: 1.3 µM
  MIC: 1.8 µM (≈ 0.577 µg/mL)
  MIC90: 2.5 µM (≈ 0.802 µg/mL)
M. tuberculosis H37Ra
  MIC: 1.56 to 3.13 µM (≈ 0.5 to 1 µg/mL)
[3]
  membrane disruption (propidium iodide entry): Neither 227 nor 21 disrupt the membrane
In vivo [5]; po, 25 mg/kg
  bioavailability: 8.6%
HeLa cells; [11]
  IC50: 15 to 37 µM
Epoxide hydrolase EphF
  EphF inhibition: strong inhibition
[6]
  Clearance: fast clearance
physchem
  solubility kinetic at 5 min: 55 µM (≈ 17.6 µg/mL)
[2]
  competition of 227-p1 labelling of EphF and EphD: strongly out-competed; also recorded: out-competed

## O=C(Nc1cc(C(F)(F)F)cc(C(F)(F)F)c1)Nc1ccc(Cl)c(OC(F)(F)F)c1 [Compound 275]
M. smegmatis DSM43756; [12]
  MIC: 0.8 µM (≈ 0.373 µg/mL)

## CC[C@@H](CO)NCCN[C@@H](CC)CO [Ethambutol]
[8]
  susceptibility shift in MmpL3 under-expressing strain: no significant shifts

## O=C(Nc1ccc2c(c1)OC(F)(F)O2)Nc1ccc(Cl)c(C(F)(F)F)c1 [PK150]
Mtb [9]
  MIC against Mtb: 6.25 µM (≈ 2.47 µg/mL)
M. smegmatis DSM43756
  MIC: 3.1 µM (≈ 1.22 µg/mL)
LepB
  modulation of LepB activity: not a target; also recorded: did not show any inhibition

## CC(C)=CCC/C(C)=C/CNCCNC1C2CC3CC(C2)CC1C3 (centres unmarked) [SQ109, reference compound]
Mtb H37Ra proteome; full proteome (FP), protein Rv3587c (O53572), probable conserved membrane protein
  dysregulated in FP?: slightly upregulated with SQ109 treatment
